Experiments:
Test in all cases: Test E greenhouse herbicide test, pre- and postemergence
Type in all cases: in vivo
[1] = system: arrowleaf sida (Sida rhombifolia)
Summary of the method: (§1)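 Greenhouse pots; preemergence on silt loam, postemergence on plants 1- to 4-leaf (2 to 18 cm) grown in peat, vermiculite and nutrient medium. Test chemicals formulated in non-phytotoxic solvent with surfactant. Ratings taken after 14 to 21 d.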

[2] = system: barnyardgrass (Echinochloa crus-galli)
Summary of the method: as §1

corn (Zea mays) = system: corn (Zea mays)
Summary of the method: as §1

[3] = system: crabgrass, Brazilian (Brazilian crabgrass, Digitaria horizontalis)
Summary of the method: as §1

[4] = system: dayflower (Virginia (VA) dayflower, Commelina virginica)
Summary of the method: as §1

[5] = system: field bindweed (Convolvulus arvensis)
Summary of the method: as §1

[6] = system: foxtail, green (green foxtail, Setaria viridis); conditions: Preemergence
Summary of the method: as §1

[7] = system: goosegrass (Eleusine indica); conditions: Preemergence
Summary of the method: as §1

[8] = system: horseweed (Conyza canadensis)
Summary of the method: as §1

[9] = system: lambsquarters (Chenopodium album); conditions: Preemergence
Summary of the method: as §1

[10] = system: nightshade (eastern black nightshade, Solanum ptycanthum); conditions: Preemergence
Summary of the method: as §1

[11] = system: panicum, fall (fall panicum, Panicum dichotomiflorum)
Summary of the method: as §1

[12] = system: pigweed, palmer (palmer pigweed, Amaranthus palmeri)
Summary of the method: as §1

[13] = system: ragweed (common ragweed, Ambrosia elatior)
Summary of the method: as §1

soybean (Glycine max) = system: soybean (Glycine max)
Summary of the method: as §1

[14] = system: surinam grass (Brachiaria decumbens); conditions: Preemergence
Summary of the method: as §1

[15] = 62 g ai/ha, Preemergence, scale 0 to 100 (0 no effect, 100 complete control)
[16] = Preemergence, 31 g ai/ha, scale 0 to 100, 0 no effect, 100 complete control
[17] = Preemergence, 125 g ai/ha, visual, scale 0 no effect to 100 complete control
[18] = Preemergence, 250 g ai/ha, visual, scale 0 no effect to 100 complete control
[19] = 62 g ai/ha, scale 0 to 100 (0 no effect, 100 complete control)
[20] = 31 g ai/ha, scale 0 to 100, 0 no effect, 100 complete control
[21] = 125 g ai/ha, visual, scale 0 no effect to 100 complete control
[22] = 250 g ai/ha, visual, scale 0 no effect to 100 complete control
[23] = 125 g ai/ha, scale 0 to 100 (0 no effect, 100 complete control)
[24] = 125 g ai/ha, Preemergence, scale 0 to 100 (0 no effect, 100 complete control)
[25] = 62 g ai/ha, Postemergence, scale 0 to 100 (0 no effect, 100 complete control)
[26] = 125 g ai/ha, Postemergence, scale 0 to 100 (0 no effect, 100 complete control)
[27] = 250 g ai/ha, Postemergence, scale 0 to 100 (0 no effect, 100 complete control)
[28] = Postemergence, 31 g ai/ha, visual, scale 0 no effect to 100 complete control

CCOC(=O)Oc1c(C)nn(C)c(=O)c1-c1c(CC)ccc2ccccc12 [Compound 37]
98: Plant response rating, Arrowleaf Sida [1, 18] | Plant response rating, Lambsquarters [9, 21] | Plant response rating, Nightshade [10, 23] | Plant response rating, Nightshade [10, 22] | Plant response rating, Ragweed [13, 18]
95: Plant response rating, Crabgrass, Brazil [3, 18] | Plant response rating, Ragweed [13, 24]
70: Plant response rating, Arrowleaf Sida [1, 16] | Plant response rating, Crabgrass, Brazil [3, 16]
75: Plant response rating, Field Bindweed [5, 16] | Plant response rating, Goosegrass [7, 21] | Plant response rating, Surinam Grass [14, 19] | Plant response rating, Surinam Grass [14, 23]
80: Plant response rating, Foxtail, Green [6, 22] | Plant response rating, Goosegrass [7, 22] | Plant response rating, Nightshade [10, 19]
5: Plant response rating, Dayflower, VA [4, 15]
0: Plant response rating, Barnyardgrass [2, 15] | Plant response rating, Barnyardgrass [2, 16] | Plant response rating, Barnyardgrass [2, 17] | Plant response rating, Corn (corn (Zea mays); [15]) | Plant response rating, Corn (corn (Zea mays); [16]) | Plant response rating, Corn (corn (Zea mays); [17]) | Plant response rating, Corn (corn (Zea mays); [18]) | Plant response rating, Dayflower, VA [4, 16] | Plant response rating, Foxtail, Green [6, 20] | Plant response rating, Pigweed, Palmer [12, 16] | Plant response rating, Soybean (soybean (Glycine max); [15]) | Plant response rating, Soybean (soybean (Glycine max); [16]) | Plant response rating, Soybean (soybean (Glycine max); [18])
50: Plant response rating, Ragweed [13, 16] | Plant response rating, Surinam Grass [14, 20]
65: Plant response rating, Foxtail, Green [6, 21]
30: Plant response rating, Barnyardgrass [2, 18]
35: Plant response rating, Goosegrass [7, 19] | Plant response rating, Goosegrass [7, 20]
60: Plant response rating, Dayflower, VA [4, 18] | Plant response rating, Foxtail, Green [6, 19]
40: Plant response rating, Dayflower, VA [4, 17]
90: Plant response rating, Arrowleaf Sida [1, 17] | Plant response rating, Crabgrass, Brazil [3, 17] | Plant response rating, Field Bindweed [5, 15] | Plant response rating, Nightshade [10, 20] | Plant response rating, Panicum, Fall [11, 16] | Plant response rating, Pigweed, Palmer [12, 15] | Plant response rating, Ragweed [13, 15] | Plant response rating, Surinam Grass [14, 22]
85: Plant response rating, Arrowleaf Sida [1, 15] | Plant response rating, Crabgrass, Brazil [3, 15] | Plant response rating, Field Bindweed [5, 17]
100: Plant response rating, Field Bindweed [5, 18] | Plant response rating, Horseweed [8, 15] | Plant response rating, Horseweed [8, 16] | Plant response rating, Horseweed [8, 17] | Plant response rating, Horseweed [8, 18] | Plant response rating, Lambsquarters [9, 19] | Plant response rating, Lambsquarters [9, 20] | Plant response rating, Lambsquarters [9, 22] | Plant response rating, Panicum, Fall [11, 15] | Plant response rating, Panicum, Fall [11, 24] | Plant response rating, Panicum, Fall [11, 18] | Plant response rating, Pigweed, Palmer [12, 24] | Plant response rating, Pigweed, Palmer [12, 18]

COC(=O)Oc1c(C)nn(C)c(=O)c1-c1c(C)sc2c(C)cc(C)cc12 [Compound 81]
75: Plant response rating, Barnyardgrass [2, 18] | Plant response rating, Field Bindweed [5, 26] | Plant response rating, Field Bindweed [5, 24] | Plant response rating, Horseweed [8, 25] | Plant response rating, Pigweed, Palmer [12, 15] | Plant response rating, Pigweed, Palmer [12, 24]
70: Plant response rating, Arrowleaf Sida [1, 24] | Plant response rating, Arrowleaf Sida [1, 18] | Plant response rating, Dayflower, VA [4, 25] | Plant response rating, Foxtail, Green [6, 19] | Plant response rating, Goosegrass [7, 23] | Plant response rating, Surinam Grass [14, 20]
15: Plant response rating, Dayflower, VA [4, 15]
98: Plant response rating, Lambsquarters [9, 20] | Plant response rating, Nightshade [10, 22] | Plant response rating, Panicum, Fall [11, 16]
100: Plant response rating, Crabgrass, Brazil [3, 18] | Plant response rating, Field Bindweed [5, 18] | Plant response rating, Foxtail, Green [6, 22] | Plant response rating, Horseweed [8, 15] | Plant response rating, Horseweed [8, 24] | Plant response rating, Horseweed [8, 18] | Plant response rating, Lambsquarters [9, 19] | Plant response rating, Lambsquarters [9, 23] | Plant response rating, Lambsquarters [9, 22] | Plant response rating, Nightshade [10, 23] | Plant response rating, Panicum, Fall [11, 15] | Plant response rating, Panicum, Fall [11, 24] | Plant response rating, Panicum, Fall [11, 18] | Plant response rating, Pigweed, Palmer [12, 18] | Plant response rating, Ragweed [13, 15] | Plant response rating, Ragweed [13, 24] | Plant response rating, Ragweed [13, 18]
25: Plant response rating, Barnyardgrass [2, 15]
85: Plant response rating, Field Bindweed [5, 27] | Plant response rating, Horseweed [8, 27] | Plant response rating, Panicum, Fall [11, 26] | Plant response rating, Panicum, Fall [11, 28] | Plant response rating, Ragweed [13, 26]
50: Plant response rating, Barnyardgrass [2, 27] | Plant response rating, Crabgrass, Brazil [3, 26] | Plant response rating, Crabgrass, Brazil [3, 27] | Plant response rating, Horseweed [8, 28] | Plant response rating, Pigweed, Palmer [12, 27]
65: Plant response rating, Crabgrass, Brazil [3, 16] | Plant response rating, Dayflower, VA [4, 18] | Plant response rating, Field Bindweed [5, 25] | Plant response rating, Horseweed [8, 26]
0: Plant response rating, Barnyardgrass [2, 16] | Plant response rating, Corn (corn (Zea mays); [25]) | Plant response rating, Corn (corn (Zea mays); [15]) | Plant response rating, Corn (corn (Zea mays); [24]) | Plant response rating, Corn (corn (Zea mays); [28]) | Plant response rating, Corn (corn (Zea mays); [16]) | Plant response rating, Corn (corn (Zea mays); [18]) | Plant response rating, Field Bindweed [5, 15] | Plant response rating, Field Bindweed [5, 16] | Plant response rating, Soybean (soybean (Glycine max); [15]) | Plant response rating, Soybean (soybean (Glycine max); [26]) | Plant response rating, Soybean (soybean (Glycine max); [24]) | Plant response rating, Soybean (soybean (Glycine max); [28]) | Plant response rating, Soybean (soybean (Glycine max); [16]) | Plant response rating, Soybean (soybean (Glycine max); [18])
35: Plant response rating, Barnyardgrass [2, 24] | Plant response rating, Dayflower, VA [4, 24] | Plant response rating, Pigweed, Palmer [12, 16]
40: Plant response rating, Arrowleaf Sida [1, 25] | Plant response rating, Arrowleaf Sida [1, 28] | Plant response rating, Arrowleaf Sida [1, 16] | Plant response rating, Crabgrass, Brazil [3, 25] | Plant response rating, Crabgrass, Brazil [3, 28] | Plant response rating, Goosegrass [7, 19]
10: Plant response rating, Dayflower, VA [4, 16] | Plant response rating, Soybean (soybean (Glycine max); [27])
95: Plant response rating, Crabgrass, Brazil [3, 15] | Plant response rating, Foxtail, Green [6, 23] | Plant response rating, Surinam Grass [14, 23] | Plant response rating, Surinam Grass [14, 22]
60: Plant response rating, Arrowleaf Sida [1, 15] | Plant response rating, Arrowleaf Sida [1, 27] | Plant response rating, Dayflower, VA [4, 28] | Plant response rating, Field Bindweed [5, 28] | Plant response rating, Ragweed [13, 25] | Plant response rating, Ragweed [13, 28]
5: Plant response rating, Corn (corn (Zea mays); [26]) | Plant response rating, Corn (corn (Zea mays); [27])
90: Plant response rating, Crabgrass, Brazil [3, 24] | Plant response rating, Horseweed [8, 16] | Plant response rating, Nightshade [10, 19] | Plant response rating, Panicum, Fall [11, 27] | Plant response rating, Ragweed [13, 16] | Plant response rating, Surinam Grass [14, 19]
20: Plant response rating, Barnyardgrass [2, 25] | Plant response rating, Barnyardgrass [2, 28] | Plant response rating, Foxtail, Green [6, 20] | Plant response rating, Goosegrass [7, 20] | Plant response rating, Pigweed, Palmer [12, 25]
30: Plant response rating, Arrowleaf Sida [1, 26] | Plant response rating, Barnyardgrass [2, 26] | Plant response rating, Pigweed, Palmer [12, 28]
80: Plant response rating, Dayflower, VA [4, 26] | Plant response rating, Dayflower, VA [4, 27] | Plant response rating, Goosegrass [7, 22] | Plant response rating, Nightshade [10, 20] | Plant response rating, Panicum, Fall [11, 25] | Plant response rating, Ragweed [13, 27]

From patent US10597388B2, “Pyridazinone herbicides” (FMC CORPORATION, priority 2014, dated 2020)
